The term Km denotes the substrate concentration at which the rate is half of its maximum.

For assay [1], the target named is T1, AibH1H2 (Rhodococcus wratislaviensis, UniProt A0A402C2Q3).
T1 construct: gene Rhow_000803; recombinant, E. coli BL21(DE3), pET-Duet-AibH1H2 with GroEL/ES-TF; His6-tagged; (alpha-beta)2 heterotetramer; Mn-grown (MnAibH1H2), Fe(II) added; with 2-aminoisobutyric acid hydroxylase subunit AibH1 (amidohydrolase family protein)
In words: GC-MS of silylated D-MeSer product. The format is biochemical. Conditions: preliminary estimate; O2, ascorbate as reductant, 1 equiv Fe(II) added to Mn-grown enzyme; 20 mM HEPES pH 8.0, 30 °C.

Assay [2] has as its target T2, AibH1H2 (Rhodococcus wratislaviensis, UniProt A0A402C2Q3, D342A).
T2 construct: gene Rhow_000803; recombinant, E. coli BL21(DE3), pET-Duet-AibH1H2 with GroEL/ES-TF; His6-tagged; (alpha-beta)2 heterotetramer; Mn-grown (MnAibH1H2), Fe(II) added; with 2-aminoisobutyric acid hydroxylase subunit AibH1 (amidohydrolase family protein)
Briefly: enzymatic activity assay (GC-MS). Conditions: diminished activity although all metals are incorporated. The format is biochemical.

T2 sequence (A0A402C2V4 entry or part of it, stated change not applied): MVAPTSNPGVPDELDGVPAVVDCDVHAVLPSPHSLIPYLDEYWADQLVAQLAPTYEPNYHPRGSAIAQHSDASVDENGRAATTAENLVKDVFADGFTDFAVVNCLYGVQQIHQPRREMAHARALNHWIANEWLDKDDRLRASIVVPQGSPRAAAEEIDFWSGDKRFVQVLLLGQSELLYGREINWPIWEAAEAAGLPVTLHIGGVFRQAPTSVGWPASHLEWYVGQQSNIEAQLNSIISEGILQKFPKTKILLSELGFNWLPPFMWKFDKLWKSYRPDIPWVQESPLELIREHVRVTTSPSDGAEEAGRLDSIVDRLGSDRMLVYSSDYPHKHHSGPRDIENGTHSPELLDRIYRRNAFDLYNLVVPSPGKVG
T2 sequence (A0A402C2Q3 entry or part of it D342A): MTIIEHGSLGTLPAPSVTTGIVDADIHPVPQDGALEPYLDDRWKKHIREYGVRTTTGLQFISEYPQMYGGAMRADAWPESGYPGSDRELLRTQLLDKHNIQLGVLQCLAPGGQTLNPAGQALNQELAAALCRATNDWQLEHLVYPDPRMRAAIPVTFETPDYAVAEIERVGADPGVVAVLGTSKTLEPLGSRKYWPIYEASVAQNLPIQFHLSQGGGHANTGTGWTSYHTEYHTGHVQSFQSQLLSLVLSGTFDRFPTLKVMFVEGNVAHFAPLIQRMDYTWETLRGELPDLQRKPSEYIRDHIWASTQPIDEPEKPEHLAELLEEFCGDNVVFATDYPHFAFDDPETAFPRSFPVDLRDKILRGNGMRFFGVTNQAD
T1 sequence (A0A402C2Q3 entry or part of it): as the sequence (A0A402C2Q3 entry or part of it D342A) above, with A342D counted along it
T1 sequence (A0A402C2V4 entry or part of it, further chain): as the sequence (A0A402C2V4 entry or part of it, stated change not applied) above

Take `CC(C)(N)C(=O)O` [AIB, 2-aminoisobutyric acid]: the Km on AibH1H2 [1] is > 100 mM. Further, the “enzymatic activity assay (GC-MS)” value on AibH1H2 [2] was “upon substitution to alanine, results in protein with diminished enzymatic activity”.

These data come from PMC10401708, “Enzymatic Hydroxylation of Aliphatic C–H Bonds by a Mn/Fe Cofactor” (Journal of the American Chemical Society, 2023).
